Laboratory results reported in US9393329B2, “N-alkoxyamide conjugates as imaging agents” (Lantheus Medical Imaging, Inc., priority 2009, dated 2016).

Experiments:
[1] = test system: aorta of apolipoprotein E (ApoE) knockout mouse; experiment: In-vivo ApoE mouse aorta uptake studies; settings: ApoE knockout mice on high-fat diet, 0.3-0.4 mCi/kg bolus via tail vein; for aorta:blood / aorta:heart: 60 min, ratio; for aorta uptake (% ID/g): tissue harvested at 60 min
Experimental: Mice were fed a high-fat diet to accelerate plaque formation and compounds were tested in the mice between 35-42 weeks on diet. Test compounds were administered at 0.3-0.4 mCi/kg to anesthetized mice in a single, bolus injection via the tail vein. Blood samples were collected via the tail between 0-30 min post injection for pharmacokinetic analysis and mice were euthanized by CO2 at 60 min for tissue harvesting. The aorta was first flushed with saline through the left ventricle exiting via the femoral vein then removed from the heart to the renal bifurcation; additional biological samples were also collected (blood, muscle, liver, kidney, bile, urine, heart, femur, reproductive organ, lung, spleen and innominate artery). All samples were weighed and assayed for radioactivity; uptake is expressed as a percentage of injected dose per gram of tissue (% ID/g).

[2] = test system: aorta bearing atherosclerotic plaque; experiment: Ex-vivo blood vessel binding assay; design: species or system New Zealand white rabbits; settings: 153Gd-labeled compound 0.135 μCi in phosphate buffered saline, plaque-bearing rabbit aorta sections, 2 h at 37° C., washed; percentage of initial activity
Experimental: Aorta bearing atherosclerotic plaque was obtained from New Zealand white rabbits that were balloon stripped along the abdominal aorta and placed on a high fat diet (0.5% cholesterol) for 16-22 weeks. Vascular injury was produced with a 4-F Fogarty catheter along the abdominal aorta and right iliofemoral artery. This procedure generates an accelerated complex lesion development with a lipid rich core covered by a fibrous cap in rabbits. Harvested aorta sections (0.5 cm) were incubated with 0.135 μCi of ^153Gd-labeled compound diluted in phosphate buffered saline (450 μL) for 2 h at 37° C. The supernatant was removed and analyzed by HPLC to assay compound stability. The tissue section was then washed with phosphate buffered saline (3×10 mL), then resuspended (10 mL) and incubated at 37° C. an additional 1 h. The supernatant was then removed, the washing process repeated and the tissue finally counted on a gamma counter. The amount of compound bound to the tissue was determined as a percentage of the initial activity according to the following formula: […]

Row | Compound | aorta:blood [1] | aorta:heart [1] | aorta uptake (% ID/g) [1] [% ID/g] | % bound [2] [%]
1 | NC(Cc1ccc(CNC(=O)CN2CCN(CC(=O)[O-])CCN(CC(=O)[O-])CCN(CC(=O)[O-])CC2)cc1)C(=O)NOCc1ccccc1.[153Gd+3] (stereo not shown) [Example 55] | 1.0 | 8.8 | 3.0 ± 2.3 | –
2 | CONC(=O)[C@@H](CCc1ccccc1)NCc1ccc(CNC(=O)CN2CCN(CC(=O)[O-])CCN(CC(=O)[O-])CCN(CC(=O)[O-])CC2)cc1.[153Gd+3] [Example 52] | 2.0 | 9.2 | 6.1 ± 1.2 | 6.9
3 | CONC(=O)C(N)Cc1ccc(CNC(=O)CN2CCN(CC(=O)[O-])CCN(CC(=O)[O-])CCN(CC(=O)[O-])CC2)cc1.[153Gd+3] (stereo not shown) [Example 54] | 1.2 | 5.3 | 2.5 ± 0.5 | –
4 | O=C([O-])CN1CCN(CC(=O)[O-])CCN(CC(=O)NCc2ccc(CN[C@H](CCc3ccccc3)C(=O)NOCc3ccccc3)cc2)CCN(CC(=O)[O-])CC1.[153Gd+3] [Example 53] | 0.8 | 4.2 | 1.5 ± 0.1 | –
